Counter-ions that a name gives are not always drawn.
Columns and labels:
[1] = biological target: T1, Serotonin 2-Receptor (Rattus norvegicus, UniProt P14842); test: Antagonistic activity on serotonin 2-receptor: inhibition of the serotonin-induced increase in blood pressure in anesthetized rats; type: in vivo; conditions: SD-SLC male rat, 10 mg/kg p.o., inhibition of blood pressure increase by serotonin 300 μg/kg i.v.
T1 construct: from tissue; host or cells: intact anesthetized SD-SLC male rat (vascular response)
T1 sequence (P14842 whole entry): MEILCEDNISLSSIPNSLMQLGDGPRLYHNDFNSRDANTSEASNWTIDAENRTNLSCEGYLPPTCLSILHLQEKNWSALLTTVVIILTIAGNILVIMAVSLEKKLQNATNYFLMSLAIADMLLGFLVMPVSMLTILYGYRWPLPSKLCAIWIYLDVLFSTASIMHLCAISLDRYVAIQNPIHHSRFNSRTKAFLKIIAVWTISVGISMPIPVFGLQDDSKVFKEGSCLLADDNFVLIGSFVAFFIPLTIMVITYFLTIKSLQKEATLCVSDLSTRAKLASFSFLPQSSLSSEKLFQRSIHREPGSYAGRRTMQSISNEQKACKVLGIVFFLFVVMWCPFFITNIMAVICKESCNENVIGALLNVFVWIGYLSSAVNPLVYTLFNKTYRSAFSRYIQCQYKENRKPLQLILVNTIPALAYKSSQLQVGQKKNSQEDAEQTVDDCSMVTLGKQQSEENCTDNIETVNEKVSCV
Description: A test compound dissolved in purified water was orally administered to an SD-SLC male rat at a dose of 10 mg/kg. After 30 minutes from the administration, the rat was anesthetized with urethane (1 g/kg, i.p.) and α-Chloralose (80 mg/kg, i.p.). A polyethylene cannula was inserted into the carotid artery, and the blood pressure was recorded on a polygraph by using a pressure transducer. After 60 minutes or 180 minutes from the administration of the test compound, 300 μg/kg of serotonin was intravenously injected, and an increase in blood pressure was observed. Serotonin 2 (hereinafter referred to as […]) antagonistic activity of the test compound was calculated as a percentage of inhibition of an increase in blood pressure induced by […]. The inhibitory effect of the test compound wa compared with that of vehicle solution treated group.

[2] = system: Sympathetic Nerve α1 -Receptor; test: Antagonistic activity on sympathetic nerve α1-receptor: inhibition of the phenylephrine-induced increase in blood pressure in anesthetized rats; type: in vivo; conditions: SD-SLC male rat, 10 mg/kg p.o.; after 60 minutes from the administration; inhibition of blood pressure increase by phenylephrine 100 μg/kg i.v.
Description: A test compound dissolved in purified water was orally administered to an SD-SLC male rat at a dose of 10 mg/kg. After 30 minutes from the administration, the rat was anesthetized with urethane (1 g/kg, i.p.) and α-Chloralose (80 mg/kg, i.p.). A polyethylene cannula was inserted into the carotid artery, and the blood pressure was recorded on a polygraph by using a pressure transducer. After 60 minutes from the administration of the test compound, 100 μg/kg of phenylephrine was intravenously injected to observe an increase in blood pressure. Sympathetic nerve α1 -receptor antagonistic activity of the test compound was calculated as a percentage of inhibition of an increase in blood pressure induced by phenylephrine. The inhibitory effect of the test compound was compared with that of vehicle solution treated group.

[3] = system: ddy male mice; test: Toxicity in mice, repeated oral administration; type: in vivo, mouse
Description: A test compound dissolved or suspended in a 1% methyl cellulose solution was orally administered to ddy male mice (4 or 5 mice per group) at a dose of 200 mg/kg once a day for consecutive 4 days. The number of dead animals per group was counted on the day next to the final administration day. As a control, 10 mλ/kg of 1% methyl cellulose solution was orally administered.

[4] = system: Mongrel dogs; test: Acute cardiac infarction model: LDA ligature and reperfusion in dogs; type: in vivo; conditions: dog, 1 mg/kg/hr intravenous drip, mean ± S.E.M.
Description: Mongrel dogs (body weight: 8 to 20 kg) under anesthesia were ventilated artificially and underwent a left thracotomy. […] A polyethylene cannula was inserted into the femoral artery, and the blood pressure and heart rate were recorded A cannula was inserted into the […] of a drug and also into the carotid artery from which a blood sample was to be taken. After stabilization period of the test preparation, LDA was ligated with a clamp. After 2 hours from the ligature, the clamp was released for reperfusion. After observation for the following 4 hours, the heart was excised. […] Then, the heart was washed and sliced at 1 cm intervals from the apex in the direction vertical to the longer axis. Each slice at the left ventricle was divided into a part which was in risk of cardiac infarction indicated by Evans' Blue stain (hereinafter referred to as risk area) and a normal area, and each area was weighed. The weight of the left ventricle (the sum of the risk area and the normal area) and that of the risk area of each slice were individually added up to obtain the weight of the whole left ventricle and the total weight of the risk area. Further, of each slice, the area of the risk area which was not stained with Evans' Blue and that of a cardiac infarction area within the risk area which remained white, i.e., which was stained neither in blue with Evans' Blue nor in red with triphenyltetrazolium chloride, were measured to obtain a ratio of cardiac infarction part to the whole left ventricle (infarction size). […] The experiment was conducted for the following groups.

[5] = system: Sympathetic Nerve α1 -Receptor; test: Antagonistic activity on sympathetic nerve α1-receptor: inhibition of the phenylephrine-induced increase in blood pressure in anesthetized rats; type: in vivo; conditions: SD-SLC male rat, 10 mg/kg p.o.; after 180 minutes from the administration; inhibition of blood pressure increase by phenylephrine 100 μg/kg i.v.
[6] = system: Mongrel dogs; test: Angina pectoris model: partial LDA occlusion with cyclic coronary flow reduction in dogs; type: in vivo; conditions: dog, 0.1 mg/kg i.v. (maleate); mean ± S.E.M.; before admin. 9.9 ± 2.5
Description: Mongrel dogs (body weight: 8 to 20 kg) under anesthesia with pentobarbital (30 mg/kg, i.v.) were ventilated artificially and underwent a left thoracotomy. LDA was separated from connected tissues. A silicone tube for partial occlusion was placed around the LDA, and a probe for blood flow rate measurement was fixed in the neighborhood. The blood flow rate was measured with a pulse Doppler blood flow meter. A cannula was inserted into a branch distal to the occlusion site of the left coronary artery, and the coronary blood pressure was measured. A polyethylene cannula was inserted into the femoral artery, and the systemic blood pressure and heart rate were recorded. A cannula was inserted to the femoral vein for administration of a drug.
The effect of the drug was expressed in terms of frequency of the periodic reduction of blood flow rate.

[7] = system: rats; test: Toxicity in rats, oral administration for 10 days; type: in vivo, rat; conditions: 5 test animals
[8] = after 60 minutes from the administration
[9] = ddy male mice, 200 mg/kg p.o. once a day for consecutive 4 days, dead animals per group

Compound	Antagonistic Activity 5-HT2 (%) [1, 8] [%]	Antagonistic Activity α1 (%) [2] [%]	Toxicity (Death Rate) [3, 9]	other results
Cl.O=C(c1ccc(F)cc1)C1(O)CCN(CCn2nc3n(c2=O)CCCC3)CC1 [Example 63, 2-[2-[4-(4-Fluorobenzoyl)-4-hydroxypiperidin-1-yl]ethyl]-5,6,7,8-tetrahydro-1,2,4-triazolo[4,3-a]pyridin-3(2H)-one Hydrochloride]	85	0	–	–
Cl.Cl.O=c1nc2n(c(=O)n1CCN1CCC(=C(c3ccc(F)cc3)c3ccc(F)cc3)CC1)CCCC2 [Example 18, 3-[2-[4-[Bis(4-fluorophenyl)methylene]-piperidin-1-yl]ethyl]-6,7,8,9-tetrahydro-2H-pyrido-[1,2-a]-1,3,5-triazine-2,4(3H)-dione Dihydrochloride]	93	6	0/5	–
Cl.O=C(c1ccc(F)cc1)C1CCN(CCn2nc3n(c2=O)CCCC3)CC1 [Example 51, 2-[2-[4-(4-Fluorobenzoyl)piperidin-1-yl]ethyl]-5,6,7,8-tetrahydro-1,2,4-triazolo[4,3-a]-pyridin-3(2H)-one Hydrochloride]	95	3	0/5	–
O=c1n(CCN2CCC(=C(c3ccc(F)cc3)c3ccc(F)cc3)CC2)nc2n1CCCO2 [Example 44, 2-[2-[4-Bis(4-fluorophenyl)methylene]piperidin-1-yl]ethyl]-6,7-dihydro-5H-1,2,4-triazolo[3.4-b1-1,3-oxazin-3(2H)-one Hydrochloride Hemihydrate]	89	2	2/5	–
Cl.O=C(c1ccc(F)cc1)C1CCN(CCn2c(=O)nc3n(c2=O)CCCC3)CC1 [Example 2, 3-[2-[4-(4-Fluorobenzoyl)piperidin-1-yl]ethyl]-6,7,8,9-tetrahydro-2H-pyrido[1,2-a]-1,3,5-triazine-2,4(3H)-dione Hydrochloride]	93	9	1/5	Myocardial Blood Flow ([4]; after 2 h ligature and reperfusion, control 62 ± 9): 89 ± 14 ml/min/100 g; Infarction Size (%) ([4]; ratio of cardiac infarction part to the whole left ventricle, control 30 ± 7): 11 ± 3%
O=C(c1ccc(F)cc1)C1CCN(CCn2nc3ccccn3c2=O)CC1 [Example 49, 2-[2-[4-(4-Fluorobenzoyl)piperidin-1-yl]ethyl]-1,2,4-triazolo[4,3-a]-pyridin-3(2H)-one Hydrochloride Hemihydrate]	–	–	0/5	Antagonistic Activity 5-HT2 (%) ([1]; after 180 minutes from the administration): 82%; Antagonistic Activity α1 (%) [5]: 3%
O=c1n(CCN2CCC(=C(c3ccc(F)cc3)c3ccc(F)cc3)CC2)nc2n1CCCCC2 [Example 34, 2-[2-[4-[Bis(4-fluorophenyl)methylene]piperidin-1-yl]ethyl]-2,5,6,7,8,9-hexahydro-3H-1,2,4-triazolo[4,3-a]azepin-3-one Hydrochloride Hemihydrate]	90	3	1/4	–
O=c1nc2sccn2c(=O)n1CCN1CCC(=C(c2ccc(F)cc2)c2ccc(F)cc2)CC1 [Example 21, 3-[2-[4-[Bis(4-fluorophenyl)methylene]piperidin-1-yl]ethyl]-2H-thiazolo-[3.2-a]-1,3,5-triazine-2,4(3H)-dione Hydrochloride]	93	3	–	–
CCO.Cl.O=c1n(CCN2CCC(=C(c3ccccc3)c3ccc(F)cc3)CC2)nc2n1CCCCC2 [Example 36, 2-[2-[4-[(4-Fluorophenyl)(phenyl)methylene]piperidin-1-yl]ethyl]-2,5,6,7,8,9-hexahydro-3H-1,2,4-triazolo[4,3-a]azepin-3-one Hydrochloride Ethanolate]	84	3	0/5	–
O=C(c1ccc(F)cc1)C1CCN(CCn2c(=O)[nH]c3ccccc3c2=O)CC1 [Ketanserin, reference compound]	96	73	–	Toxicity (Death Rate) ([3]; mouse, in vivo, po, 200 mg/kg): 5/5
O=C(c1ccc(Cl)cc1)C1CCN(CCn2nc3n(c2=O)CCCC3)CC1 [Example 75, 2-[2-[4-(4-Chlorobenzoyl)piperidin-1-yl]ethyl]-5,6,7,8-tetrahydro-1,2,4-triazolo[4,3-a]pyridin-3(2H)-one Hydrochloride]	83	17	0/3	–
Cc1nc2sccn2c(=O)c1CCN1CCC(=C(c2ccc(F)cc2)c2ccc(F)cc2)CC1 [Ritanserin, reference compound]	84	5	3/5	–
O=C(c1ccc(F)cc1)C1CCN(CCn2c(=O)nc3n(c2=O)CCCC3)CC1 [Example 3, 3-[2-[4-(4-Fluorobenzoyl)piperidin-1-yl]ethyl]-6,7,8,9-tetrahydro-2H-pyrido1,2-a]-1,3,5-triazine-2,4(3H)-dione Maleate]	93	39	0/5	Frequency of Periodic Reduction in Blood Flow Rate, After Admin. [6]: 2.3 ± 1.2; Number of Dead Animals ([7]; 50 mg/kg (p.o.)): 0; Number of Dead Animals ([7]; 200 mg/kg (p.o.)): 0; Number of Dead Animals ([7]; 800 mg/kg (p.o.)): 0
O=C(c1ccc(F)cc1)C1(O)CCN(CCn2c(=O)nc3n(c2=O)CCCC3)CC1 [Example 11, 3-[2-[4-(4-Fluorobenzoyl)-4-hydroxy-piperidin-1-yl]ethyl]-6,7,8,9-tetrahydro-2H-pyrido[1,2-a-]-1,3,5-triazine-2,4(3H)-dione Dihydrochloride Hemihydrate]	83	0	–	–
O=C(O)/C=C\C(=O)O.O=C(c1ccc(F)cc1)[C@@H]1CCN(CCn2nc3n(c2=O)CCCC3)C[C@H]1c1ccc(F)cc1 (relative stereo) [Example 67, 2-[2-[trans-3-(4-Fluorophenyl)-4-(4-fluorobenzoyl)piperidin-1-yl]ethyl]-5,6,7,8-tetrahydro-3H-1,2,4-triazolo[4,3-a]pyridin-3(2H)-one Maleate]	90	4	–	–
Cl.Cl.O=c1nc2n(c(=O)n1CCN1CCC(=C(c3ccc(F)cc3)c3ccc(F)cc3)CC1)CCC2 [Example 20, 3-[2-[4-[Bis(4-fluorophenyl)methylene]-piperidin-1-yl]ethyl]-7,8-dihydro-2H,6H-pyrrolo[1,2-a]-1,3,5-triazine-2,4(3H)-dione Dihydrochloride]	83	1	–	–
